These results are taken from US12060588B2, “Methods of editing DNA methylation” (Whitehead Institute for Biomedical Research, priority 2016, dated 2024).

One experiment has as its system Npas4. The experiment can be described thus: Npas4 expression in mouse cortical neurons (RT-qPCR). In kind it is cell-based. The following applies: with the 4 BDNF promoter IV gRNAs. Here is the method:
FIGS. 11A-11L depict targeted demethylation of BDNF promoter IV by dCas9-Tet1 in neurons. […] PAM for each gRNA is highlighted by a red box. […] Note that cultured neurons were treated with AraC on DIV2 to halt cell division in glial cells and neural progenitors. […] FIG. 11C provides EDU labeling analysis for the mouse primary neurons over the course of KCl treatment for 24 hrs. Note that extremely few EDU positive cells were observed. Stained in red for EDU, green for MAP2 and DAPI for nuclei. Scale bar: 500 um. FIG. 11D Upper panel: provides quantification of neuronal density over the course of KCl treatment. The post-mitotic neuron density remains steadily around 4.5×10^4/cm2 over time. Bars represent mean±SD of three experimental replicates. Lower panel: provides quantification of the EDU positive cells over the course of KCl treatment. Less than 2% of the cells are EDU-positive over 24 hrs. Bars represent mean±SD of three experimental replicates. FIG. 11E provides confocal micrographs of BDNF induction by ectopic expression of dCas9-Tet1 and a set of 4 gRNAs targeting BDNF promoter IV. Stained in green for BDNF, magenta for MAP2, red for Cherry and blue for DAPI. […]
Cells were harvested using Trizol followed by Direct-zol (Zymo Research), according to manufacturer's instructions. […] Quantitative PCR reactions were prepared with SYBR Green (Invitrogen), and performed in 7900HT Fast ABI instrument. […]
In general terms: In qPCR the cycle at which signal appears reflects the starting amount.

For experiment [1], the system named is MyoD distal enhancer (DMR-5). The experiment is described as follows: Bisulfite sequencing of the MyoD DMR-5 region in C3H10T1/2 cells. In kind it is cell-based, mouse. Particulars: with target gRNAs, sorted infection-positive cells. From the text: FIGS. 4A-4H depict targeted demethylation of the MyoD distal enhancer by dCas9-Tet1 to facilitate conversion of fibroblasts to myoblasts. FIG. 4A provides a schematic representation of targeting the MyoD distal enhancer (DE) region in DMR-5 by dCas9-Tet1 (dC-T) with specific gRNAs. […] Cherry positive cells were FACS sorted for RT-qPCR analysis. Bars represent mean±SD of three experimental replicates. FIG. 4C bisulfite sequencing of cells in FIG. 4B. […] Shown is the mean percentage±SD of two biological replicates. […] FIG. 4F provides quantification of MyoD positive cell ratio 14-day post infection with lentiviruses expressing dC-T alone, dC-T with gRNAs targeting DMR-5, and dC-dT with the target gRNAs. […] FIG. 4H provides quantification of myotube density in MHC positive clusters with more than 2 or 5 nuclei at 14-days after infection. […] Data are quantified from 3-5 representative images for F-H. Bars represent mean±SD.
Six muscle-specific DMRs have been described within the 50 kb upstream region of MyoD gene (Schultz et al., 2015), and DMR-5 overlaps with a known distal enhancer of MyoD (Brunk et al., 1996) as shown in FIG. 4A. […] The cells were cultured for 14 days and analyzed for MyoD and MHC (Myosin Heavy chain, a myotube specific marker) expression. […]

Consider “dCas9-Tet1: catalytically inactive Cas9 (dCas9) fused through NLS to the Tet1 catalytic domain, SEQ ID NO: 159; lentivirally expressed with gRNAs”, for which the “induction of Npas4 expression” value in the experiment with Npas4 is listed as “did not induce Npas4 expression”. Further, in experiment [1], the “methylation in the DMR-5 region” value is “substantial reduction of methylation”.
